In patent publication US20230087118A1, “IMIDAZO[1,2-a][sequence] DERIVATIVES AND THEIR USE IN THE TREATMENT OF DISEASE” (priority 2019, published 2023):
pIC50: −log10 of the molar value. Counter-ions that a name gives are not always drawn.

The compounds below were run against T1, IRAK4 (Homo sapiens, UniProt Q9NWZ3) (assay: biochemical). Conditions: not given.
T1 sequence (Q9NWZ3 1-460): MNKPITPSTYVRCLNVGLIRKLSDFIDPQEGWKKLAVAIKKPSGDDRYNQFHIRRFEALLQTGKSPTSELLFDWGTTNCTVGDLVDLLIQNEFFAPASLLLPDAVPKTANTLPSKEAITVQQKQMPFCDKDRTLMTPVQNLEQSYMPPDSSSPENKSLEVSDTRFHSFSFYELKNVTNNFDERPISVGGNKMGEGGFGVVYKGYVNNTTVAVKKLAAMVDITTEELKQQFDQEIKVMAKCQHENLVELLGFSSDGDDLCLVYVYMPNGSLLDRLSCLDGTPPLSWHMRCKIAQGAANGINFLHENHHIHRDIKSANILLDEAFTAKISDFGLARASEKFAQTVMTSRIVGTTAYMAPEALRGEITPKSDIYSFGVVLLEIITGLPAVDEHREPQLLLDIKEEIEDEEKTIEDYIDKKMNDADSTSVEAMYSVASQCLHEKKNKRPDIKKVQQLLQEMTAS

Q: How did the pIC50 turn out when `COc1cccc(NC(=O)c2cn3cc(C4CCOCC4)nc3cc2OCCC2CCOC2)n1` (stereo not drawn) [Example 435, N-(6-methoxypyridin-2-yl)-2-(tetrahydro-2H-pyran-4-yl)-7-(2-(tetrahydrofuran-3-yl)ethoxy)imidazo[1,2-a]pyridine-6-carboxamide] was run?
A: The pIC50 was 8.29.

Q: `CC(C)Oc1cc2nc(C34COC(C)(C3)C4)cn2cc1C(=O)Nc1cccc2cn(C)nc12` [Example 318, 7-Isopropoxy-N-(2-methyl-2H-indazol-7-yl)-2-(1-methyl-2-oxabicyclo[2.1.1]hexan-4-yl)imidazo[1,2-a]pyridine-6-carboxamide] was tested. Which pIC50 did it give?
A: The pIC50 was 9.00.

Q: `CC12CCC(c3cn4cc(C(=O)Nc5cccn(C(F)F)c5=O)c(OC5CC5)cc4n3)(CO1)C2` (stereo not drawn) [Example 553] was tested. Which pIC50 did it give?
A: Its pIC50 is 8.82.

Q: `Cc1cc(-n2ccc(NC(=O)c3cn4cc(C56CCC(C)(C5)OC6)nc4cc3OC3CCC3)n2)ccn1` (stereo not drawn) [Example 531, 7-Cyclobutoxy-2-(1-methyl-2-oxabicyclo[2.2.1]heptan-4-yl)-N-(1-(2-methylpyridin-4-yl)-1H-pyrazol-3-yl)imidazo[1,2-a]pyridine-6-carboxamide] was tested. Which pIC50 did it give?
A: Its pIC50 is 9.10.

Q: How did the pIC50 turn out when `CC(C)Oc1cc2nc(C(F)(F)F)cn2cc1C(=O)Nc1cccc(C(F)F)n1` [Example 294, N-(6-(difluoromethyl)pyridin-2-yl)-7-isopropoxy-2-(trifluoromethyl)imidazo[1,2-a]pyridine-6-carboxamide] was run?
A: Its pIC50 is 8.25.

Q: How did the pIC50 turn out when `COc1ncccc1NC(=O)c1cn2cc(C34CCOC(C)(C3)C4)nc2c(OC)n1` [Example 235] was run?
A: The pIC50 was 8.46.

Q: `CC(C)Oc1nc2nc(C34COC(C)(C3)C4)cn2cc1C(=O)Nc1cccc(C2CC2)n1` [Example 387, N-(6-cyclopropylpyridin-2-yl)-7-isopropoxy-2-(1-methyl-2-oxabicyclo[2.1.1]hexan-4-yl)imidazo[1,2-a]pyrimidine-6-carboxamide] was tested. Which pIC50 did it give?
A: The pIC50 was 9.05.

Q: With `CC(C)Oc1nc2nc(C34CCC(C)(CC3)OC4)cn2cc1C(=O)Nc1cccn(C(F)F)c1=O` [Example 384, N-(1-(difluoromethyl)-2-oxo-1,2-dihydropyridin-3-yl)-7-isopropoxy-2-(1-methyl-2-oxabicyclo[2.2.2]octan-4-yl)imidazo[1,2-a]pyrimidine-6-carboxamide] as the compound, how does the pIC50 read?
A: The pIC50 was 9.70.

Q: How did the pIC50 turn out when `CC12CCC(c3cn4cc(C(=O)Nc5cnn6cccnc56)c(OC5CCC5)cc4n3)(CO1)C2` (stereo not drawn) [Example 425, 7-Cyclobutoxy-2-(1-methyl-2-oxabicyclo[2.2.1]heptan-4-yl)-N-(pyrazolo[1,5-a]pyrimidin-3-yl)imidazo[1,2-a]pyridine-6-carboxamide] was run?
A: Its pIC50 is 9.40.

Q: How did the pIC50 turn out when `C[C@@]12CC[C@@](c3cn4cc(C(=O)Nc5cccc(C(F)F)n5)cc(OC(F)F)c4n3)(CO1)C2` (single isomer, unassigned) [Example 584] was run?
A: Its pIC50 is 7.81.

Q: `CC(C)Oc1cc2nc(C3CC3)cn2cc1C(=O)Nc1cccc(CO)n1` [Example 483, 2-Cyclopropyl-N-(6-(hydroxymethyl)pyridin-2-yl)-7-isopropoxyimidazo[1,2-a]pyridine-6-carboxamide] was tested. Which pIC50 did it give?
A: Its pIC50 is 8.05.

Q: With `CC(C)Oc1nc2nc(C34COC(C)(C3)C4)cn2cc1C(=O)Nc1ccccn1` [Example 354, 7-Isopropoxy-2-(1-methyl-2-oxabicyclo[2.1.1]hexan-4-yl)-N-(pyridin-2-yl)imidazo[1,2-a]pyrimidine-6-carboxamide] as the compound, how does the pIC50 read?
A: The pIC50 was 8.28.

Q: How did the pIC50 turn out when `CC12CC(c3cn4cc(C(=O)Nc5cccn(C(F)F)c5=O)c(OC5CCCC5)cc4n3)(CO1)C2` [Example 457, 7-(Cyclopentyloxy)-N-(1-(difluoromethyl)-2-oxo-1,2-dihydropyridin-3-yl)-2-(1-methyl-2-oxabicyclo[2.1.1]hexan-4-yl)imidazo[1,2-a]pyridine-6-carboxamide] was run?
A: Its pIC50 is 9.70.

Q: `CC(C)Oc1nc2nc([C@@]34CC[C@@](C)(C3)OC4)cn2cc1C(=O)Nc1cccn(C(F)F)c1=O` (single isomer, unassigned) [Example 628] was tested. Which pIC50 did it give?
A: Its pIC50 is 10.00.

Q: How did the pIC50 turn out when `COc1cccc(NC(=O)c2cn3cc(C4CC5CCC(C4)O5)nc3cc2OC(C)C)n1` (stereo not drawn) [Example 94, 2-(8-oxabicyclo[3.2.1]octan-3-yl)-7-isopropoxy-N-(6-methoxypyridin-2-yl)imidazo[1,2-a]pyridine-6-carboxamide] was run?
A: Its pIC50 is 7.75.

Q: `COc1cc2nc(C3CCOCC3)cn2cc1C(=O)Nc1ccnc(C)c1OC` [Example 201] was tested. Which pIC50 did it give?
A: The pIC50 was 6.42.

Q: How did the pIC50 turn out when `COc1cc2nc(C34CC(C)(CO3)C4)cn2cc1C(=O)Nc1ccccn1` [Example 4] was run?
A: The pIC50 was 6.63.

Q: `COc1c(C(=O)Nc2cccc(C(F)F)n2)cn2cc(C34COC(C)(C3)C4)nc2c1C` [Example 290, N-(6-(difluoromethyl)pyridin-2-yl)-7-methoxy-8-methyl-2-(1-methyl-2-oxabicyclo[2.1.1]hexan-4-yl)imidazo[1,2-a]pyridine-6-carboxamide] was tested. Which pIC50 did it give?
A: Its pIC50 is 7.56.

Q: How did the pIC50 turn out when `CC12CC(c3cn4cc(C(=O)Nc5cccc(C(F)F)n5)nc(OC5CCC5)c4n3)(CO1)C2` [Example 345, 8-Cyclobutoxy-N-(6-(difluoromethyl)pyridin-2-yl)-2-(1-methyl-2-oxabicyclo[2.1.1]hexan-4-yl)imidazo[1,2-a]pyrazine-6-carboxamide] was run?
A: The pIC50 was 8.66.

Q: How did the pIC50 turn out when `O=C(Nc1cccn(C(F)F)c1=O)c1cn2cc(C3CC3)nc2cc1OC1CCCC1` [Example 458, 7-(Cyclopentyloxy)-2-cyclopropyl-N-(1-(difluoromethyl)-2-oxo-1,2-dihydropyridin-3-yl)imidazo[1,2-a]pyridine-6-carboxamide] was run?
A: The pIC50 was 8.72.

Q: `CC(C)Oc1nc2nc(C34COC(C)(C3)C4)cn2cc1C(=O)Nc1cccn2cnnc12` [Example 409, N-([1,2,4]triazolo[4,3-a]pyridin-8-yl)-7-isopropoxy-2-(1-methyl-2-oxabicyclo[2.1.1]hexan-4-yl)imidazo[1,2-a]pyrimidine-6-carboxamide] was tested. Which pIC50 did it give?
A: Its pIC50 is 8.82.

Q: `CCc1c(NC(=O)c2cn3cc(C4CCOCC4)nc3cc2OC)cnn1C` [Example 199] was tested. Which pIC50 did it give?
A: Its pIC50 is 6.74.

Q: `CC(C)Oc1nc2nc(C34CCOC(C)(C3)C4)cn2cc1C(=O)Nc1cccc(C(F)(F)F)n1` [Example 237] was tested. Which pIC50 did it give?
A: The pIC50 was 9.52.

Q: How did the pIC50 turn out when `CCOc1nc2nc(C34COC(C)(C3)C4)cn2cc1C(=O)Nc1cccnc1OC` [Example 242] was run?
A: The pIC50 was 8.89.

Q: With `CC(C)Oc1cc2nc(C34COC(C)(C3)C4)cn2cc1C(=O)Nc1ccc(F)cn1` [Example 244] as the compound, how does the pIC50 read?
A: The pIC50 was 8.23.

Q: With `COc1cc2nc(C34CCOC(C)(C3)C4)cn2cc1C(=O)Nc1cccc(C(F)F)n1` [Example 233] as the compound, how does the pIC50 read?
A: Its pIC50 is 8.60.

Q: With `COc1cc2nc(C3CCOCC3)cn2cc1C(=O)Nc1ccc(F)cc1OC(C)C` [Example 109] as the compound, how does the pIC50 read?
A: The pIC50 was 6.94.

Same assay, conditions: IRAK4 Biochemical Assay (1 mM ATP, 2 h) IC50 (μM), 1 mM ATP, 2 h, 100 pM IRAK4

Q: How did the IC50 turn out when `CC(C)Oc1cc2nc(C34COC(C)(C3)C4)cn2cc1C(=O)Nc1cc(F)n(C)n1` [Example 641, N-(5-fluoro-1-methyl-1H-pyrazol-3-yl)-7-isopropoxy-2-(1-methyl-2-oxabicyclo[2.1.1]hexan-4-yl)imidazo[1,2-a]pyridine-6-carboxamide trifluoroacetate] was run?
A: Its IC50 is 0.0062 µM.

Q: With `Cn1ccc(NC(=O)c2cn3cc(C45COC(C)(C4)C5)nc3cc2OC2CC(C(F)F)C2)n1` (stereo not drawn) [Example 451, 7-(3-(Difluoromethyl)cyclobutoxy)-N-(1-methyl-1H-pyrazol-3-yl)-2-(1-methyl-2-oxabicyclo[2.1.1]hexan-4-yl)imidazo[1,2-a]pyridine-6-carboxamide] as the compound, how does the IC50 read?
A: Its IC50 is 0.0065 µM.

Q: How did the IC50 turn out when `CCOc1nc(C(=O)Nc2cccc(C(F)F)n2)cn2cc(C3CCOCC3)nc12` [Example 207, N-[6-(difluoromethyl)-2-pyridyl]-8-ethoxy-2-tetrahydropyran-4-ylimidazo[1,2-a]pyrazine-6-carboxamide trifluoroacetate] was run?
A: The IC50 was 0.0147 µM.

Q: `CC12CC(c3cn4cc(C(=O)Nc5cccn(C(F)F)c5=O)c(OCC5(F)CCOCC5)cc4n3)(CO1)C2` [Example 456, N-(1-(difluoromethyl)-2-oxo-1,2-dihydropyridin-3-yl)-7-((4-fluorotetrahydro-2H-pyran-4-yl)methoxy)-2-(1-methyl-2-oxabicyclo[2.1.1]hexan-4-yl)imidazo[1,2-a]pyridine-6-carboxamide] was tested. Which IC50 did it give?
A: Its IC50 is 0.0071 µM.

Q: `CCOc1nc(C(=O)Nc2cc(F)cn(C)c2=O)cn2cc(C34CCC(C)(C3)OC4)nc12` (stereo not drawn) [Example 277, 8-Ethoxy-N-(5-fluoro-1-methyl-2-oxo-1,2-dihydropyridin-3-yl)-2-(1-methyl-2-oxabicyclo[2.2.1]heptan-4-yl)imidazo[1,2-a]pyrazine-6-carboxamide trifluoroacetate] was tested. Which IC50 did it give?
A: The IC50 was 0.0061 µM.

Q: For `COc1cccc(NC(=O)c2cn3cc(C45CCC(C)(CC4)OC5)nc3cc2OC)n1` [Example 29], which IC50 is on record?
A: The IC50 was 0.0041 µM.

Q: `CC(C)Oc1cc2nc(C34COC(C)(C3)C4)cn2cc1C(=O)Nc1cnn2cccnc12` [Example 299, 7-Isopropoxy-2-(1-methyl-2-oxabicyclo[2.1.1]hexan-4-yl)-N-(pyrazolo[1,5-a]pyrimidin-3-yl)imidazo[1,2-a]pyridine-6-carboxamide trifluoroacetate] was tested. Which IC50 did it give?
A: The IC50 was 0.0005 µM.

Q: With `Cc1cnc2c(NC(=O)c3cn4cc(C56CCC(C)(CC5)OC6)nc4cc3OC(C)C)cnn2c1` [Example 573, 7-Isopropoxy-2-(1-methyl-2-oxabicyclo[2.2.2]octan-4-yl)-N-(6-methylpyrazolo[1,5-a]pyrimidin-3-yl)imidazo[1,2-a]pyridine-6-carboxamide] as the compound, how does the IC50 read?
A: Its IC50 is 0.0018 µM.

Q: How did the IC50 turn out when `CC(C)Oc1cc2nc(C34COC(C)(C3)C4)cn2cc1C(=O)Nc1cnn(C)n1` [Example 316, 7-Isopropoxy-N-(2-methyl-2H-1,2,3-triazol-4-yl)-2-(1-methyl-2-oxabicyclo[2.1.1]hexan-4-yl)imidazo[1,2-a]pyridine-6-carboxamide trifluoroacetate] was run?
A: The IC50 was 0.005 µM.
